In ChEMBL document CHEMBL3421568, “Discovery and preliminary evaluation of 2-aminobenzamide and hydroxamate derivatives containing 1,2,4-oxadiazole moiety as potent histone deacetylase inhibitors” (Eur J Med Chem, 2015):

Tests used:
Histone deacetylase 2 = Histone deacetylase 2 (Homo sapiens, UniProt Q92769); test: Inhibition of recombinant HDAC2 (unknown origin) using fluorogenic substrate Boc-Lys (acetyl)-AMC after 20 mins by homogeneous fluorescence release assay
Histone deacetylase 8 = target: T1, Histone deacetylase 8 (Homo sapiens, UniProt Q9BY41); test: Inhibition of recombinant HDAC8 (unknown origin) using fluorogenic substrate Boc-Lys (acetyl)-AMC after 20 mins by homogeneous fluorescence release assay
T1 sequence (Q9BY41 whole entry): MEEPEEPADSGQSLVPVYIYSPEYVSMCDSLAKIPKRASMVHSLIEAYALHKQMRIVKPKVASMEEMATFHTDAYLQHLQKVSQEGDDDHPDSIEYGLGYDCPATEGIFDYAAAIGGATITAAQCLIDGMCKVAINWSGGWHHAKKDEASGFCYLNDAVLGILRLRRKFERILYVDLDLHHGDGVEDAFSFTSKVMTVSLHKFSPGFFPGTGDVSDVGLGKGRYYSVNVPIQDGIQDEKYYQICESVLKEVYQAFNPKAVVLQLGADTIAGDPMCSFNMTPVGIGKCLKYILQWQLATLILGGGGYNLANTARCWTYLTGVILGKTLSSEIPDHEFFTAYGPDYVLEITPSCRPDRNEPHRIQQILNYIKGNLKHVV

cells [1] = assay type: functional, cell-based; settings: Homo sapiens, HCT-116, 72 h
Description: Antiproliferative activity against human HCT116 cells assessed as inhibition of cell growth after 72 hrs by MTT-based assay

MDA-MB-231 = test: cells; assay type: functional, cell-based; settings: Homo sapiens, MDA-MB-231, 72 h
Description: Antiproliferative activity against human MDA-MB-231 cells assessed as inhibition of cell growth after 72 hrs by MTT-based assay

A549 = test: Antiproliferative activity against human A549 cells assessed as inhibition of cell growth after 72 hrs by MTT-based assay; assay type: functional; settings: A549, 72 h
cells [2] = assay type: functional, cell-based; settings: Homo sapiens, U-937, 72 h
Description: Antiproliferative activity against human U937 cells assessed as inhibition of cell growth after 72 hrs by MTT-based assay

Histone deacetylase 1 = Histone deacetylase 1 (Homo sapiens, UniProt Q13547); test: Inhibition of recombinant HDAC1 (unknown origin) using fluorogenic substrate Boc-Lys (acetyl)-AMC after 20 mins by homogeneous fluorescence release assay
Sequence of Histone deacetylase 1 (Q13547 whole entry): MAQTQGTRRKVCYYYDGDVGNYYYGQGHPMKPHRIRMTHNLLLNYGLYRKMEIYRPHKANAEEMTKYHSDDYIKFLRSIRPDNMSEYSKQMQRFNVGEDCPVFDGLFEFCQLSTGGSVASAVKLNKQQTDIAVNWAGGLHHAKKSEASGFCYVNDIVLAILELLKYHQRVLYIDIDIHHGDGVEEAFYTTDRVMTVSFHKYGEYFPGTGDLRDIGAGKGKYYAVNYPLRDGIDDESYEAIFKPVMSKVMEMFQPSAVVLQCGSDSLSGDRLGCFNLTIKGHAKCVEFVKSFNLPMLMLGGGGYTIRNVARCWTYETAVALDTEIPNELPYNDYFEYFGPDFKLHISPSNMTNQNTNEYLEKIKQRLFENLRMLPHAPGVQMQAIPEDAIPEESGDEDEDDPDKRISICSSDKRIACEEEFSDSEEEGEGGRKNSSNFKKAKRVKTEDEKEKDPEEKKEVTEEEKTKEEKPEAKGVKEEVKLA

NCI-H661 = test: Antiproliferative activity against human NCI-H661 cells assessed as inhibition of cell growth after 72 hrs by MTT-based assay; assay type: functional; settings: NCI-H661, 72 h

Sequence of Histone deacetylase 2 (Q92769 whole entry): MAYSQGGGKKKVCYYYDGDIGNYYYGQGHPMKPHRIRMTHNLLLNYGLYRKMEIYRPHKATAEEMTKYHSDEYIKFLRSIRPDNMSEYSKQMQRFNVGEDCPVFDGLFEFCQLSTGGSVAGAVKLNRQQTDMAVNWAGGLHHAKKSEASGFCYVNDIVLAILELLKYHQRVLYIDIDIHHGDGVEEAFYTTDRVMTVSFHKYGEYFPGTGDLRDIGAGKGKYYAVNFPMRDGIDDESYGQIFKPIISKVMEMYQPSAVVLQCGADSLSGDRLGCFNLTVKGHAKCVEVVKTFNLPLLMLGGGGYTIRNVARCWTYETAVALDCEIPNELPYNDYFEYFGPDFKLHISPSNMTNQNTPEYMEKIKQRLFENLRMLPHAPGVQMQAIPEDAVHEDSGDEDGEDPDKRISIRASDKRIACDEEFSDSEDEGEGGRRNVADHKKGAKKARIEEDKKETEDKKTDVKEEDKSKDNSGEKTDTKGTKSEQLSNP

Row | Structure (SMILES) | IC50 (Histone deacetylase 2) | IC50 (Histone deacetylase 8) | IC50 (cells [1]) | IC50 (MDA-MB-231) | IC50 (A549) | IC50 (cells [2]) | IC50 (Histone deacetylase 1) | IC50 (NCI-H661)
1 | Nc1ccccc1NC(=O)c1ccc(CNCc2nc(-c3cccs3)no2)cc1 | 4.39 µM | > 10 µM | 27.2 µM | 10.3 µM | > 100 µM | 5.96 µM | 3.85 µM | 35.8 µM
2 | Nc1ccccc1NC(=O)c1ccc(CNCc2nc(-c3cccnc3)no2)cc1 | 8.37 µM | > 10 µM | 43.6 µM | 21.2 µM | > 100 µM | 11 µM | 5.26 µM | 100 µM
3 | O=C(NO)c1ccc(CNCc2nc(-c3ccccc3)no2)cc1 | > 10 µM | 0.2 µM | 29.3 µM | 14.7 µM | > 100 µM | 7.21 µM | 5.73 µM | > 100 µM
4 | Cc1ccc(-c2noc(CNCc3ccc(C(=O)NO)cc3)n2)cc1 | > 10 µM | 1.25 µM | 27.8 µM | 15.4 µM | > 100 µM | 7.83 µM | 6.86 µM | > 100 µM
5 | COc1ccc(-c2noc(CNCc3ccc(C(=O)NO)cc3)n2)cc1 | > 10 µM | 0.86 µM | 18.6 µM | 8.93 µM | > 100 µM | 3.45 µM | 8.32 µM | > 100 µM
6 | O=C(NO)c1ccc(CNCc2nc(-c3ccc(C(F)(F)F)cc3)no2)cc1 | > 10 µM | 1.36 µM | 43.1 µM | 12.3 µM | > 100 µM | 8.05 µM | 9.63 µM | > 100 µM
7 | O=C(NO)c1ccc(CNCc2nc(-c3ccc(Cl)cc3)no2)cc1 | 8.52 µM | 0.35 µM | 30.2 µM | 10.9 µM | > 100 µM | 5.29 µM | 3.85 µM | > 100 µM
8 | O=C(NO)c1ccc(CNCc2nc(-c3ccc([N+](=O)[O-])cc3)no2)cc1 | 9.23 µM | 0.38 µM | 21.9 µM | 9.56 µM | > 100 µM | 6.52 µM | 2.67 µM | > 100 µM
9 | O=C(NO)c1ccc(CNCc2nc(-c3ccc(F)cc3)no2)cc1 | 7.69 µM | 0.23 µM | 17.8 µM | 9.12 µM | > 100 µM | 2.95 µM | 3.53 µM | > 100 µM
10 | O=C(NO)c1ccc(CNCc2nc(-c3cccs3)no2)cc1 | > 10 µM | 8.26 µM | > 100 µM | 23.9 µM | > 100 µM | 10.7 µM | > 10 µM | > 100 µM
11 | Nc1ccccc1NC(=O)c1ccc(CNC(=O)OCc2cccnc2)cc1 [ENTINOSTAT] | – | – | 0.78 µM | 4.63 µM | 5.41 µM | 0.55 µM | – | 2.19 µM
12 | O=C(CCCCCCC(=O)Nc1ccccc1)NO [VORINOSTAT] | – | – | – | – | – | – | – | 0.13 µM

Results, then the molecule that gave them:

Row | IC50 (Histone deacetylase 2) | IC50 (Histone deacetylase 8) | IC50 (cells [1]) | IC50 (MDA-MB-231) | IC50 (A549) | IC50 (cells [2]) | IC50 (Histone deacetylase 1) | IC50 (NCI-H661) | Structure (SMILES)
13 | 0.53 µM | > 10 µM | 8.63 µM | 7.69 µM | 10.8 µM | 1.63 µM | 0.28 µM | 11.8 µM | Nc1ccccc1NC(=O)c1ccc(CNCc2nc(-c3ccccc3)no2)cc1
14 | 0.56 µM | > 10 µM | 6.55 µM | 5.81 µM | 9.81 µM | 0.97 µM | 0.21 µM | 7.39 µM | Cc1ccc(-c2noc(CNCc3ccc(C(=O)Nc4ccccc4N)cc3)n2)cc1
15 | 0.29 µM | > 10 µM | 4.37 µM | 5.53 µM | 7.95 µM | 1.09 µM | 0.18 µM | 5.77 µM | COc1ccc(-c2noc(CNCc3ccc(C(=O)Nc4ccccc4N)cc3)n2)cc1
16 | 5.93 µM | > 10 µM | 19.7 µM | 6.87 µM | 100 µM | 2.58 µM | 2.75 µM | 23.5 µM | Nc1ccccc1NC(=O)c1ccc(CNCc2nc(-c3ccc(C(F)(F)F)cc3)no2)cc1
17 | 0.43 µM | > 10 µM | 6.81 µM | 5.12 µM | 13.5 µM | 0.43 µM | 0.09 µM | 8 µM | Nc1ccccc1NC(=O)c1ccc(CNCc2nc(-c3ccc(Cl)cc3)no2)cc1
18 | 0.15 µM | > 10 µM | 2.33 µM | 3.18 µM | 6.39 µM | 0.52 µM | 0.06 µM | 4.73 µM | Nc1ccccc1NC(=O)c1ccc(CNCc2nc(-c3ccc([N+](=O)[O-])cc3)no2)cc1
19 | 0.28 µM | > 10 µM | 3.51 µM | 2.95 µM | 10.7 µM | 1.25 µM | 0.11 µM | 4.36 µM | Nc1ccccc1NC(=O)c1ccc(CNCc2nc(-c3ccc(F)cc3)no2)cc1
20 | 0.32 µM | > 10 µM | 1.23 µM | 3.57 µM | 7.92 µM | 0.38 µM | 0.07 µM | 3.33 µM | Nc1ccccc1NC(=O)c1ccc(CNCc2nc(-c3ccccc3Cl)no2)cc1
